In ChEMBL document CHEMBL1201862, “PubChem BioAssay data set” (2004):
Each block holds one compound with its values, some of them ahead of it. The source made the active and inactive calls.

Legend:
Type in all cases: functional
[1] = biological target: G-protein coupled receptor 55 (Homo sapiens, UniProt Q9Y2T6); experiment: blockers of GPR55 signalling, imaged – imaging, image-based, counter-screen for GPR35 antagonist project, SAR follow-up (AID 2397)
[2] = biological target: T1, Intestinal-type alkaline phosphatase (Homo sapiens, UniProt P09923); experiment: activation of human intestinal alkaline phosphatase – biochemical, luminescent, uHTS hits, set 2, dose response (AID 488817);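 also: potency of activators that raise enzyme activity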
T1 sequence (P09923 whole entry): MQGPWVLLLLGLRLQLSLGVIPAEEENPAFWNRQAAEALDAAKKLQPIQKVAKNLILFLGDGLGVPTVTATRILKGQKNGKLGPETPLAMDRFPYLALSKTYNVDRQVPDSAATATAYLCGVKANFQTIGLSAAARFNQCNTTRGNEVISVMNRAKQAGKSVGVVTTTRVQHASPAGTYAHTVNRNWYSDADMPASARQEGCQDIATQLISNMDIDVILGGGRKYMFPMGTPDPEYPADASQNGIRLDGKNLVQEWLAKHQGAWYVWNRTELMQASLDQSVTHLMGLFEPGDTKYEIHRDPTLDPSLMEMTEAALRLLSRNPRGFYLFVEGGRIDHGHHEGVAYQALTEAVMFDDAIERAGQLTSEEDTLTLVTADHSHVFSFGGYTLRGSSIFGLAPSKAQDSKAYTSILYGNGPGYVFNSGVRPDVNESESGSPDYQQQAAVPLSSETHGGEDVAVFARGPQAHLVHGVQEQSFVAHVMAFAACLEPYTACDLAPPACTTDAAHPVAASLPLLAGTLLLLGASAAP

[3] = biological target: T1, Intestinal-type alkaline phosphatase; experiment: human intestinal alkaline phosphatase activators, dose response, biochemical, luminescence, uHTS hits (AID 463120)
[4] = biological target: T2, Alkaline phosphatase, tissue-nonspecific isozyme (Homo sapiens, UniProt P05186); experiment: activation of tissue-nonspecific alkaline phosphatase – biochemical, TNAP isozyme, human IAP uHTS hits, selectivity assay for human IAP activator project, dose response (AID 488886);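 also: potency of compounds raising TNAP activity as a selectivity check on IAP activators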
T2 sequence (P05186 whole entry): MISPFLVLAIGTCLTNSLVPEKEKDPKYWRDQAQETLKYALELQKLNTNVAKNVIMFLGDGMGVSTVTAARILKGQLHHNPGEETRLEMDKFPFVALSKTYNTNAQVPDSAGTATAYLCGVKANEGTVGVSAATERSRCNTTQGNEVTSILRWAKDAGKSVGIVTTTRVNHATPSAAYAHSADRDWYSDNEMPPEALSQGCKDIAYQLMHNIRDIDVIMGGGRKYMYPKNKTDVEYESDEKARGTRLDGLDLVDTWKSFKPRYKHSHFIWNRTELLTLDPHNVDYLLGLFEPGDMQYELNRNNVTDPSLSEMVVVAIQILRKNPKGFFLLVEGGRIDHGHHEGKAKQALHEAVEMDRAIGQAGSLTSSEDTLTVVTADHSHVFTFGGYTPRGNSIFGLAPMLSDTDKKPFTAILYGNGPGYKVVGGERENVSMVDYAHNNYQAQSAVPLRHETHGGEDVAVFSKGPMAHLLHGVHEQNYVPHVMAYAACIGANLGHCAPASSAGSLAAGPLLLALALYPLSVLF

[5] = biological target: Intestinal-type alkaline phosphatase (Mus musculus, UniProt P24822); experiment: PubChem AID 488874
Intestinal-type alkaline phosphatase (Mus musculus, UniProt P24822), sequence (P24822 whole entry): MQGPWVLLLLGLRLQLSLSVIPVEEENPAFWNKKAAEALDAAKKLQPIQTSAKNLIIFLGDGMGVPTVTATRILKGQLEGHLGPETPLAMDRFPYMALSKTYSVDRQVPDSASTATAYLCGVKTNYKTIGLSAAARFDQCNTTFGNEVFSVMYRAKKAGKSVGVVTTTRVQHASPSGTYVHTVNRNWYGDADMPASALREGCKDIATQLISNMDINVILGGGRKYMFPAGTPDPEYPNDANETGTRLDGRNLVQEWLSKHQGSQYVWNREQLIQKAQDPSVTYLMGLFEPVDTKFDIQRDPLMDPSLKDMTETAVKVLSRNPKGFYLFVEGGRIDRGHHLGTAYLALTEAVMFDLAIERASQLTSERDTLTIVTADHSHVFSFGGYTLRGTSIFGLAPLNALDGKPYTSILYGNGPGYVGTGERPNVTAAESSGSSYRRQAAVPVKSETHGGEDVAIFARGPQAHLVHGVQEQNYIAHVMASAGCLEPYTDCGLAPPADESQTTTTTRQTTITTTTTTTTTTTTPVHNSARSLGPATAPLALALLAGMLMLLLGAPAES

[6] = biological target: T3, Kappa-type opioid receptor (Homo sapiens, UniProt P41145); experiment: SAR analysis of small molecule agonists of the kappa opioid receptor via a luminescent beta-arrestin assay. [Related pubchem assays (depositor defined):AID1777, AID1786, AID1966, AID2133, AID2136, AID2348, AID2352, AID2357, AID2359, AID2370, AID2420, AID2478, AID2491, AID2492, AID2493, AID2497, AID2498, AID2500, AID449737, AID488822, AID488842]
T3 sequence (P41145 whole entry): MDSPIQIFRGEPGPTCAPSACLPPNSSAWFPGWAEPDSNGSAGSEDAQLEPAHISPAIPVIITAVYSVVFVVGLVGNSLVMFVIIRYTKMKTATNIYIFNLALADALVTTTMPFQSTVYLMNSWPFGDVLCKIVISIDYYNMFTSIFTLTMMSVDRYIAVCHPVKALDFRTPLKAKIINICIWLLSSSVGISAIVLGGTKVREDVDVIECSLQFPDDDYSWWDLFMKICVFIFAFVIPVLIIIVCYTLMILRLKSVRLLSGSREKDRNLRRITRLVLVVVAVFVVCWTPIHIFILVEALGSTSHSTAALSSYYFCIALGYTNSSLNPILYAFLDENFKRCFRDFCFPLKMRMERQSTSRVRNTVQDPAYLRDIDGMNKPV

[7] = biological target: T4, Delta-type opioid receptor (Homo sapiens, UniProt P41143); experiment: delta opioid receptor blockers – image-based, SAR follow-up (AID 2357)
T4 sequence (P41143 whole entry): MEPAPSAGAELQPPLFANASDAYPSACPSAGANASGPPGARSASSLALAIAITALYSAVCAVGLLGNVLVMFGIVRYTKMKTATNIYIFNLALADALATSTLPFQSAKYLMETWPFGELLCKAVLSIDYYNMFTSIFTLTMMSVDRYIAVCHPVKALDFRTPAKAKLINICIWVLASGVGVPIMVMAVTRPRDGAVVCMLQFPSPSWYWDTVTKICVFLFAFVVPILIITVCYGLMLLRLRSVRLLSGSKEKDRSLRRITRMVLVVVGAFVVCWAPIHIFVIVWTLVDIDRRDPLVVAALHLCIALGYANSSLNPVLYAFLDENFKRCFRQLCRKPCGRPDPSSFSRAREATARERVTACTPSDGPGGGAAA

[8] = biological target: T3, Kappa-type opioid receptor; experiment: kappa opioid receptor activation potency – imaging, image-based, SAR follow-up (AID 2359)
Mu-type opioid receptor [9] = biological target: T5, Mu-type opioid receptor (Homo sapiens, UniProt P35372); experiment: mu opioid receptor blockers – image-based, SAR follow-up (AID 2420);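 also: compounds added before stimulation of receptor with agonist DAMGO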
T5 sequence (P35372 whole entry): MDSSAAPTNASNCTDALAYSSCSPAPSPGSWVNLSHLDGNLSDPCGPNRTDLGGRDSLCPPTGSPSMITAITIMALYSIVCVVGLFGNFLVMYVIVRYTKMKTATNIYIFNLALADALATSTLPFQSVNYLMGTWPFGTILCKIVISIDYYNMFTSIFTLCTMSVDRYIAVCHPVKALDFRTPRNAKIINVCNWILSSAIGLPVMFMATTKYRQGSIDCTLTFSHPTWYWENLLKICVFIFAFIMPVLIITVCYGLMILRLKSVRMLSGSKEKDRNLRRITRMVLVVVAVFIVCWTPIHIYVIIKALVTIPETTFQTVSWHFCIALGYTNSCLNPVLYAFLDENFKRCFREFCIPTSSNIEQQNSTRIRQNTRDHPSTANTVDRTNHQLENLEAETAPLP

[10] = biological target: T4, Delta-type opioid receptor; experiment: DOR agonists, SAR follow-up, image-based (AID 2370)
Mu-type opioid receptor [11] = biological target: T5, Mu-type opioid receptor; experiment: mu opioid receptor activators, image-based, SAR follow-up (AID 2352)
[12] = biological target: T3, Kappa-type opioid receptor; experiment: kappa opioid receptor blockers, image-based, SAR follow-up (AID 2348)

G-protein coupled receptor 55, sequence (Q9Y2T6 whole entry): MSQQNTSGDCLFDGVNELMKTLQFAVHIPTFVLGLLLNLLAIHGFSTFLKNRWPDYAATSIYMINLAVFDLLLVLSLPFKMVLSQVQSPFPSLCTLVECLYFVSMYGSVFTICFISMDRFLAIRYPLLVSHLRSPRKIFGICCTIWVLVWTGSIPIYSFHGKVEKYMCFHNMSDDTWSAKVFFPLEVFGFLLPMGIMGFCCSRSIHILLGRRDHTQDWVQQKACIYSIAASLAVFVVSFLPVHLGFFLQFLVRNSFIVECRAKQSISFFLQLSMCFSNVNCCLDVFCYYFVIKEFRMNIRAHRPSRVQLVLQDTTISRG

IC50 [1]: > 32 µM (inactive)
Structure (SMILES): CCC(Sc1nc2ccsc2c(=O)n1Cc1ccc(C(=O)O)cc1)C(=O)Nc1ccc(Cl)cc1 (configuration not stated)

EC50 [2]: 16 µM (active) | EC50 [3]: 13.1 µM (active) | EC50 [4]: 26.3 µM (active) | IC50 [5]: 60.7 µM (active)
Structure (SMILES): COc1ccc(O)c(/C=N/NC(=S)NCCc2ccccc2)c1

EC50 [6]: > 10 µM (inactive) | IC50 [7]: > 32 µM (inactive) | EC50 [8]: 19.9 µM (inactive) | IC50 (Mu-type opioid receptor [9]): > 32 µM (inactive) | EC50 [10]: > 32 µM (inactive) | EC50 (Mu-type opioid receptor [11]): > 32 µM (inactive) | IC50 [12]: > 32 µM (inactive)
Structure (SMILES): CCCCN(Cc1cc2cc(OC)ccc2[nH]c1=O)C(=O)c1ccccn1
